Reference: US20050282908A1, “Substituted aminopropoxyaryl derivatives useful as agonists for LXR” (SmithKline Beecham Corporation, priority 2000, published 2005)

Columns and labels:
[1] = target: T1, human LXRβ ligand binding domain (Homo sapiens, UniProt P55055); test: Assay for LXRβ Activity (HTRF, SRC-1 peptide recruitment); assay type: biochemical; details: 1 μM; over a background reading of 10000 fluorescence units
T1 construct: made in house; host or cells: E. coli BL21 (DE3), vector pRSETa
T1 sequence (P55055 184-460 limits assumed): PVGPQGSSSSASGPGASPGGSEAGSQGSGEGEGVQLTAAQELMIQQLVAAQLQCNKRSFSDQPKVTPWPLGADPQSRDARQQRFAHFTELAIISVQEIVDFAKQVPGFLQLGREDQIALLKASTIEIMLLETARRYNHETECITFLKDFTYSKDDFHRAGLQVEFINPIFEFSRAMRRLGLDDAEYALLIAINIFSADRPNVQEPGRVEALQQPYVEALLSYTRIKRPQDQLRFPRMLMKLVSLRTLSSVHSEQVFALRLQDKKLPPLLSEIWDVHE
T1 sequence (Q15788 676-700 partner limits assumed): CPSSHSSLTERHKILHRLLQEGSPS
Method: A modified polyhistidine tag (MKKGHHHHHHG) (SEQ ID No. 1) was fused in frame to the human LXRβ ligand binding domain (amino acids 185-461 of Genbank accession number U07132) and subcloned into the expression vector pRSETa (Invitrogen) under the control of an IPTG inducible T7 promoter. The human LXRβ ligand binding domain was expressed in E. coli strain BL21 (DE3). Ten-liter fermentation batches were grown in Rich PO4 media with 0.1 mg/mL Ampicillin at 25° C. for 12 hours, cooled to 9° C. and held at that temperature for 36 hours to a density of OD600=14. At this cell density, 0.25 mM IPTG was added and induction proceeded for 24 hours at 9° C., to a final OD600=16. Cells were harvested by centrifugation (20 minutes, 3500 g, 4° C.), and concentrated cell slurries were stored in PBS at −80° C.
Typically 25-50 g of cell paste is resuspended in 250-500 mL TBS, pH 8.0 (25 mM Tris, 150 mM NaCl). Cells are lysed by passing 3 times through an APV Rannie MINI-lab homogenizer and cell debris is removed by centrifugation (30 minutes, 20,000 g, 4° C.). […] After washing to baseline absorbance with equilibration buffer, the column is washed with approximately one column volume of TBS pH […] containing 95 mM imidazole. […] After washing to baseline absorbance with the dilution buffer the protein is eluted with a gradient from 50-500 mM NaCl. […]

[2] = target: T2, LXRα ligand binding domain (Homo sapiens, UniProt Q13133); test: Assay for LXRα Activity (HTRF, run as Example 1); assay type: biochemical; details: 1 μM; over a background reading of 10000 fluorescence units
T2 construct: His tag; made in house
T2 sequence (Q13133 183-447): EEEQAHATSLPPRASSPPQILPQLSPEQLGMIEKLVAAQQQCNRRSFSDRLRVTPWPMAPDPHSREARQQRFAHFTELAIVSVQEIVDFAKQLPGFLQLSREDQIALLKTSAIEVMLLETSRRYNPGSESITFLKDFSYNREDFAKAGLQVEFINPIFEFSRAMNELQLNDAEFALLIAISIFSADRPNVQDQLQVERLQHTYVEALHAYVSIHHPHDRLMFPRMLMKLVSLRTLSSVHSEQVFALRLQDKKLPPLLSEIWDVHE
T2 sequence (Q15788 676-700 partner): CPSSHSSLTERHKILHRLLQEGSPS
Method: The assay for LXRα was run according to the procedures of Example 1, above using his-tagged LXRα ligand binding domain (amino acids 183-447 of Genbank accession number U22662, with the 14th amino acid corrected to A from R).
In this assay 1 μM 24(S),25-epoxycholesterol gave a reading of 20000 fluorescence units over a background reading of 10000 fluorescence units.

**Q.** Which reading [1] does the source give for C[C@H](CC[C@@H]1OC1(C)C)[C@H]1CC[C@H]2[C@@H]3CC=C4C[C@@H](O)CC[C@]4(C)[C@H]3CC[C@]12C [24(S),25-epoxycholesterol] here?
**A.** The reading was 20000 fluorescence units.

**Q.** And the reading [2]?
**A.** Its reading is 20000 fluorescence units.
